Drawing on a melting point compilation (Tetko et al.; mined from patent text by program, amines drawn as free bases though some values may be those of a salt), this text covers melting point for 88 compounds.

SMILES strings stand for the structures. Residues, ends and D or L forms follow the SMILES beside them. *: point of attachment. Cbz = O=C(OCc1ccccc1)* Some results are limits rather than exact numbers.

With `COc1cc(CC#N)c(CCN)cc1OC`, the melting point was 78 °C.

In turn, `COC(=O)C(Cc1c[nH]c2ccccc12)NC(=S)c1ccc2c(c1)OCO2` (stereo not drawn) came in with a melting point of 129 to 130 °C.

`COc1ccc(-n2c(=O)oc(=O)c3ccccc32)cc1`: the melting point fell in the range of 215 to 216 °C. With `CCOC(=O)C(CC#N)(C(=O)OCC)c1ccc([N+](=O)[O-])cn1` the figure was 66 to 68 °C. To `CC(COC1CCCCO1)C1CCC2C3CC=C4CC(O)CC(O)C4(C)C3CCC12C` (stereo not drawn) belongs 138 to 141 °C; to `CC1(C)Oc2cc(CCc3ccccc3)cc(O)c2C2=CC(=O)CCC21` (stereo not drawn), 233 to 235 °C; to `O=C(NCc1ccccc1)Nc1cc(CNc2ccccc2C(=O)Nc2cccc(C(F)(F)F)c2)ccn1`, 153 °C. To `CCNc1nc(SC)ncc1CNc1cc(OC)cc(OC)c1Cl` belongs 116 to 118 °C; to `Cc1nc(C)c2c(n1)N(Cc1ccc(-c3ccccc3-c3nnn[nH]3)cc1)C(=O)C(O)C2` (stereo not drawn), 154 to 156 °C. `Clc1ccc(Nc2nc3ccccc3c3[nH]c(C4CCCC4)nc23)cc1` returned a melting point of 189 to 190 °C. With `CCOC(=O)c1nc(-c2ccccc2)nc2c1c1ccc(Cl)cc1n2C` the figure was 139 to 140 °C; with `Cc1oc(-c2ccccc2)nc1COc1ccc(CON=C(CCC(=O)O)c2cccnc2)cc1`, 158 to 159 °C; with `Cc1c(-c2ccccc2)c(Cl)nc2ccccc12`, 88 to 90 °C. Take `O=C1NCCN1C1CCN(CCC2COc3ccccc3O2)CC1` (stereo not drawn): the melting point was 155 to 157 °C. Compound `Cc1ccc(-c2cc3cc(C(=O)Nc4ccc(CN(C)C5CCOCC5)cc4)ccc3o2)cc1` gave a melting point of 233 to 236 °C. To `c1ccc2cc(-c3ccc(-c4nc(-c5ccc(-c6ccc7ccccc7c6)cc5)n(-c5cccc6ccccc56)n4)cc3)ccc2c1` belongs above 250 °C; to `Cc1oc(-c2ccco2)nc1COc1ccc(COc2nn(Cc3ccccc3)cc2CO)cc1Cl`, 119 to 120 °C.

Turning to `CC(=O)OC(c1cscc1S(N)(=O)=O)C(C)F` (stereo not drawn), the melting point fell in the range of 92 to 94 °C. With `O=c1oc(-c2ccccc2)cc(O)c1C(CCCSc1ccccc1)Sc1ccccc1` (stereo not drawn) the figure was 75 to 77 °C; with `O=C(O)CCC(=O)c1cccc(C(F)(F)F)c1`, 80 to 82 °C. To `CCOC(=NC(=O)c1ccc(Cl)cc1)N1Cc2ccccc2-c2ccccc2C1` belongs 106 to 107 °C. With `COc1ccc(-n2nc(O)c3c(=O)c4ccc(Cl)cc4[nH]c3c2=O)cc1Cl` the figure was 395 to 396 °C. The compound `Cc1ccc2c(c1)C(=O)N1CCN=C1N2N1CCOCC1` showed a melting point of 227 to 228 °C. With `CCCN(CCC)Cc1nc(-c2ncn3c2CN(C)C(=O)c2sccc2-3)no1` the figure was 128 to 130 °C. `CSC1C(=O)Nc2ccc(C(F)(F)F)cc21` (stereo not drawn) registered a melting point of 136 to 138 °C. The compound `CCN(CC)C(=O)c1ccccc1-c1ccc(F)cc1` returned a melting point of 57 to 59 °C.

`CCCCC1(O)CCN(C(=O)C(c2ccccc2)n2cnc3[nH]ncc3c2=S)CC1` (stereo not drawn) registered a melting point of 98 to 102 °C.

For `COc1ccc(N=Nc2ccc(O)c(C(=O)Nc3ccc4cn[nH]c4c3)c2)cc1`, the melting point amounted to 279 °C.

For the compound `Fc1cccc(F)c1-c1ncc(NCc2ccc(Cl)cc2)nn1`, the melting point lay in the range of 200 to 205 °C. As to `Nc1ccc(S(=O)(=O)N2CCN(c3ccccn3)CC2)cc1`, the melting point was in the range of 208 to 210 °C. As to `CC(=O)c1cn(-c2cc(C)c3[nH]c(=O)ccc3c2)c(C)n1`, the melting point was in the range of 306 to 308 °C. Compound `CCn1c(C)cc(=O)nc1S` yielded a melting point of 190 °C. With `COc1ccc2c(n1)C1(CO2)C(=O)N(Cc2ccc(C(F)(F)F)o2)c2cccc(Cl)c21` (stereo not drawn) the figure was 106 to 108 °C; with `CCN(c1ccc(SC)cc1C#N)S(=O)(=O)c1ccc(C)cc1`, 136 to 137 °C. To `Cc1ncc(OC2CCCCO2)c(=O)[nH]1` (stereo not drawn) belongs 149 to 151 °C.

On to `CC(=O)NC(=C(C)C(=O)O)c1ccccc1`, for which the melting point stood at 190 °C. To `COC1(c2cc(F)cc(OCc3nc(-c4ccccc4)c(-c4ccc(S(N)(=O)=O)cc4)o3)c2)CCOCC1` belongs 70 to 80 °C; to `O=C(c1ccc(Cl)cc1)c1c(N2C(=O)c3ccccc3C2=O)sc(Br)c1CN(C1CCCCC1)C1CCCCC1`, 173 to 175 °C; to `Oc1ccc2c(-c3cccc4ccc(O)cc34)noc2c1`, 262 to 264 °C. In the case of `COCCN1CCn2c1nc(C(=O)O)c(OCc1ccccc1)c2=O`, the melting point was 125 to 126 °C. With `CCN(CC)c1nc2cc(C)nn2c2ccncc12` the figure was 118 °C. To `CN(C)C(=O)Sc1ccc(C(=O)c2cccc(C#N)c2)cc1` belongs 150 °C; to `CC(=O)NCC1CC(c2ccc(F)cc2)=NO1` (stereo not drawn), 167 to 168 °C. With `CCOC(=O)CC(C)Sc1nnc(S)s1` (stereo not drawn) the figure was 107 to 108 °C. Compound `COc1cc(OC)c2c(=O)[nH]c(-c3ccc(OCCNC(C)C)c(-c4ccc(S(C)(=O)=O)cc4C)n3)nc2c1` displayed a melting point of 202 to 203 °C.

For the compound `CCCc1ccc(C=NN=Cc2ccc(F)cc2)cc1`, the melting point is 70.5 °C. To `CC(C)(C)OC(=O)Nc1nc2cc(NC(=O)C(=O)N3CCC(Cc4ccccc4)CC3)ccc2[nH]1` belongs 192 °C; to `COc1ccc(C(=O)C2=C(O)C(=O)N(c3nnc(C)s3)C2c2ccc(C#N)cc2)cc1` (stereo not drawn), 185 °C; to `COC(=O)c1ccc2sc(/C=C/c3cccc(N)c3)nc2c1`, 165 to 167 °C. Turning to `C=Cc1nc(C(=O)OC)c(Cl)c(N)c1F`, the melting point is 68 to 71 °C. To `Cc1cc(C(Cl)=C(Cl)Cl)cc(C(Cl)=C(Cl)Cl)c1` belongs 41.4 to 44.6 °C; to `CCCn1cc2c(C3C(=O)Nc4ccc(Br)cc43)nc(Cl)nc2n1` (stereo not drawn), above 300 °C. To `O=C(Cc1ccc2ccn(C3CCN(CCc4ccc(F)cc4)CC3)c2c1)NCC1OCCO1` belongs 118 to 119 °C; to `COC(=O)C1Oc2ccccc2Cc2ccc(OC)cc2O1` (stereo not drawn), 93 to 95 °C.

For the compound `O=C(O)Cc1csc(-c2cc3cccc(NS(=O)(=O)c4cccs4)c3[nH]2)n1`, the melting point was 228 to 229 °C.

Consider `O=C(Nc1nc(CN2CCC(c3c[nH]c4ccccc34)CC2)cs1)C(F)(F)F`, for which the melting point lay in the range of 244 to 247 °C.

On to `O=C(Oc1cc(OC(=O)c2cc(O)cc(O)c2)c2ccccc2c1)c1cc(O)cc(O)c1`, for which the melting point lay within 167 to 169 °C. With `O=C(c1ccc([N+](=O)[O-])c(O)c1)N1CCOCC1`, the melting point stood at 106 °C. With `CC(=O)NC(NC(=O)CC(=O)OCc1ccccc1)C(=O)NCc1ccccc1` (stereo not drawn) the figure was 177 to 179 °C; with `Cc1nc2c(-c3cccc(N4CCN(C)CC4)c3)cnn2c(N)c1-c1ccc(F)c(F)c1`, 216 to 219 °C.

For `COC(=O)C(CC(C)C)NC(=O)C(Cc1ccccc1)NC(=O)OCc1ccccc1` (stereo not drawn) (Cbz-Phe-Leu-OMe; configuration not given here), the melting point was in the range of 125 to 126 °C. With `CCN1c2ncc(CCc3ccc(NS(C)(=O)=O)cc3)cc2C(=O)N(C)c2ccc(Cl)nc21` the figure was 199 to 204 °C. With `OCC1C=CC(n2cnc3c(Cl)ncnc32)C1` (stereo not drawn) the figure was 121 to 124 °C. Regarding `CCOC(=O)[C@@H]1CSC=CN1C(=O)[C@@H](Cc1ccccc1)N1C(=O)c2ccccc2C1=O` (relative stereo), the melting point is 193 °C.

For `C=CC(=O)NC(C)(C)C(=O)NCC(OC)OC`, the melting point lay in the range of 80 to 82 °C. To `Cc1nc2ccc(NCCCN3CCC(OC(c4ccccc4)c4ccccc4)CC3)nn2c1C(=O)O` belongs 101 to 103 °C. With `NC(=O)C(=O)c1c2n(c3ccccc13)CCNCC2` the figure was 214 to 215 °C; with `COc1cc(O)c(C(=O)CC(=O)C(C)(C)C#N)c(OC)c1`, 112 to 113 °C; with `CCCCCS(=O)(=O)NC(=O)CCc1cc(OCCOC)nn1Cc1ccc(Cl)cc1Cl`, 108 to 112 °C. Take `Cc1c(N2CCc3ccccc3C2)c(F)cn2c(=O)c(C(=O)O)cc(C3CC3)c12`: the melting point was 214 to 215 °C. To `COC(=O)c1cnc(Cl)o1` belongs 35 to 50 °C; to `Cc1cc2c(cc1C1=NNC(=O)CC1C)NC(=O)C(C)O2` (stereo not drawn), 190 to 191 °C. Compound `CCOC(=O)NN=Cc1nc(C(C)(C)C)[nH]c1C` showed a melting point of 226 to 228 °C. With `N#CCC1CC(c2ccccc2)=NO1` (stereo not drawn) the figure was 79 to 80.5 °C; with `COc1cccc(N2CCCN(/C(C)=C(/C#N)C(N)=S)CC2)c1`, 129 to 131 °C; with `c1csc(-c2nc(COc3ccc(CCCCn4ccnc4)cc3)co2)c1`, 106 to 107 °C.

`Fc1ccccc1-c1n[nH]c(-c2ccccc2C(F)(F)F)n1` displayed a melting point of 153 to 155 °C. With `COc1cc2ccccc2cc1NC(=O)Nc1cccc2ccccc12` the figure was 155 to 156 °C. With `OCC1Cc2cc(Cl)cc(C3CCCCC3)c2O1` (stereo not drawn), the melting point fell in the range of 67 to 69 °C. With `Cc1sc(C)c(Cc2nc3c(F)c(F)cc(F)c3s2)c1CC#N` the figure was 145 to 146 °C; with `COc1cc(C(=O)Oc2ccccc2C(C)=O)cc([N+](=O)[O-])c1OC`, 108 to 109 °C.

Compound `CCOc1nc(-c2ccc(F)cc2C)c2ccc(=O)n(-c3ccccc3F)c2n1` came in with a melting point of 137 to 139 °C. With `O=C(O)Cc1coc2cc(OCc3cc(-c4ccc(Cl)cc4)on3)ccc12` the figure was 193 to 194 °C. To `O=C(O)CCNS(=O)(=O)c1ccc(N2CCC(c3ccccc3)CC2)cc1` belongs 145 to 147 °C. In turn, `O=C(NC(=O)c1cc(F)c(F)cc1Cl)Nc1cccnc1N1CCC(C(=O)NCCO)CC1` came in with a melting point of 203 °C. With `O=S1(=O)CCN2C=CC=C(c3ccc(Oc4ccc(C(F)(F)F)cc4)cc3)C2=N1` the figure was 253 to 255 °C. With `CC(CNc1nc2ccccc2o1)C(=O)NCCCN(C)Cc1ccc(Cl)c(Cl)c1` (stereo not drawn) the figure was 134 to 135 °C. To `O=C(O)Cc1ccccc1OCCn1ccnc1` belongs 146 to 147 °C.
